Results reported in US12024510B2, “Pyrazolopyridine-diamides, their use as insecticide and processes for preparing the same” (PI INDUSTRIES LTD., priority 2017, dated 2024).

These compounds were tested on Plutella xylostella (assay: whole plant or invertebrate). Conditions: foliar, cabbage leaf dip, second instar larvae, dead and moribund combined, 72 h after release.
Type: in vivo
Procedure: Test Solutions were Prepared According to the Procedure Described Herein Below (500 PPM):
• 1. Eppendorf Vortex mixer (ThermoMixer C) and 1.5 mL Eppendorf tubes • 2. Zirconia (Zirconium-Yttrium) beads having diameter of 0.8 to 1.0 mm • 3. Microscope • 4. Beaker 100 mL • 5. Micro-pipette Reagents: • 1. Surfactant Solution • 2. De-mineralized (DM) Water • 1. Weigh 10 mg of the compound of the present invention to be tested in an Eppendorf Tube. • 2. Add 200 mg of the Surfactant Solution into the tube. • 3. Add 600 mg of Zirconia beads into the above mixture. • 4. Fix the tube in Eppendorf Vortex mixer and start vortexing at 2000 rpm. • 5. Mix on Vortex mixer for 30 minutes. After 30 minutes, observe the sample over a microscope at 400× resolution. • 6. If the Maximum particle size is more than 5 μm or average particle size is more than 2 μm or the particle size distribution is uneven, continue vortexing for another 30 minutes and again check the particle size using the microscope. Continue till the average particle size is below 2 microns. • 7. When the required particle size is achieved, add 1.0 mL DM water into the tube, close the cap, shake the tube thoroughly and transfer the contents, along with the beads, into a beaker. • 8. To rinse the tube, add another 1.0 mL of DM water into the tube, close the cap, shake well and transfer this into the same beaker. • 9. Repeat Step no. 8 one more time so that the tube is rinsed well and the compound of the present invention to be tested is transferred to the beaker. • 10. Add 16.8 mL of DM water into the beaker and stir well. • 11. The homogeneous dispersion can then be decanted into a glass vial, immediately, to separate the Zirconia beads. • 12. Immediately use this sample for biological testing. • 13. Further dilutions can be prepared by taking appropriate quantity of the aliquot of Step 10, immediately after stirring, and diluting as per requirement. The sample solution must be well mixed just before biological testing.
Leaf dip method was used for screening, wherein the required quantity of the compounds were weighed and dissolved in the test solution into the tube and vortex at 2000 rpm with Zirconia beads for 90 min for proper mixing, then mixed with 0.01% Triton-X solution to get the desired test concentration. Cabbage leaves were dipped in the solution for 10 seconds, shade dried for 20 min and then transferred to bioassay trays. Single second instar larva was released into each cell and the tray was covered with lid. The bio-assay trays were kept under laboratory conditions at a temperature of 25° C. and relative humidity of 70%. Observations on dead, moribund and live larvae were recorded at 72 h after the release. Percent mortality was calculated by combining dead and moribund larvae. The following compound num.

SMILES | mortality at 300 ppm [%]
Cc1cc2ccnn2c(C(=O)NC2CS(=O)(=O)C2)c1NC(=O)c1cc(Br)nn1-c1ncccc1Cl [Compound 208, 6-(3-bromo-1-(3-chloropyridin-2-yl)-1H-pyrazole-5-carboxamido)-N-(1,1-dioxidothietan-3-yl)-5-methylpyrazolo[1,5-a]pyridine-7-carboxamide] | > 70
CONC(=O)c1c(NC(=O)c2cc(OC)nn2-c2ncccc2Cl)c(Cl)cc2ccnn12 [Compound 150, 5-chloro-6-(1-(3-chloropyridin-2-yl)-3-methoxy-1H-pyrazole-5-carboxamido)-N-methoxypyrazolo[1,5-a]pyridine-7-carboxamide] | > 70
CONC(=O)c1c(NC(=O)c2cc(Br)nn2-c2ncccc2Cl)ccc2ccnn12 [Compound 163, 6-(3-bromo-1-(3-chloropyridin-2-yl)-1H-pyrazole-5-carboxamido)-N-methoxypyrazolo[1,5-a]pyridine-7-carboxamide] | > 70
COc1cc(C(=O)Nc2c(C)cc3ccnn3c2C(=O)NOC(C)C)n(-c2ncccc2Cl)n1 [Compound 113, 6-(1-(3-chloropyridin-2-yl)-3-methoxy-1H-pyrazole-5-carboxamido)-N-isopropoxy-5-methylpyrazolo[1,5-a]pyridine-7-carboxamide] | > 70
CCNC(=O)c1c(NC(=O)c2cc(Oc3cc(C(F)(F)F)nn3C)nn2-c2ncccc2Cl)c(C)cc2ccnn12 [Compound 70, 6-(1-(3-chloropyridin-2-yl)-3-((1-methyl-3-(trifluoromethyl)-1H-pyrazol-5-yl)oxy)-1H-pyrazole-5-carboxamido)-N-ethyl-5-methylpyrazolo[1,5-a]pyridine-7-carboxamide] | > 70
CCONC(=O)c1c(NC(=O)c2cc(OC)nn2-c2ncccc2Cl)c(C)cc2ccnn12 [Compound 112, 6-(1-(3-chloropyridin-2-yl)-3-methoxy-1H-pyrazole-5-carboxamido)-N-ethoxy-5-methylpyrazolo[1,5-a]pyridine-7-carboxamide] | > 70
Cc1cc2ccnn2c(C(=O)NCC2CC2)c1NC(=O)c1cc(Oc2cc(C(F)(F)F)nn2C)nn1-c1ncccc1Cl [Compound 80, 6-(1-(3-chloropyridin-2-yl)-3-((1-methyl-3-(trifluoromethyl)-1H-pyrazol-5-yl)oxy)-1H-pyrazole-5-carboxamido)-N-(cyclopropylmethyl)-5-methylpyrazolo[1,5-a]pyridine-7-carboxamide] | > 70
CCNC(=O)c1c(NC(=O)c2cc(OC3CSC3)nn2-c2ncccc2Cl)c(C)cc2ccnn12 [Compound 144, 6-(1-(3-chloropyridin-2-yl)-3-(thietan-3-yloxy)-1H-pyrazole-5-carboxamido)-N-ethyl-5-methylpyrazolo[1,5-a]pyridine-7-carboxamide] | > 70
COc1cc(C(=O)Nc2c(C)cc3ccnn3c2C(N)=O)n(-c2ncccc2Cl)n1 [Compound 111, 6-(1-(3-chloropyridin-2-yl)-3-methoxy-1H-pyrazole-5-carboxamido)-5-methylpyrazolo[1,5-a]pyridine-7-carboxamide] | > 70
Cc1cc2ccnn2c(C(=O)NC2CONC2=O)c1NC(=O)c1cc(C(F)(F)F)nn1-c1ncccc1Cl (stereo not drawn) [Compound 128, 6-(1-(3-chloropyridin-2-yl)-3-(trifluoromethyl)-1H-pyrazole-5-carboxamido)-5-methyl-N-(3-oxoisoxazolidin-4-yl)pyrazolo[1,5-a]pyridine-7-carboxamide] | > 70
O=C(Nc1c(Br)cc2ccnn2c1C(=O)NC1CONC1=O)c1cc(C(F)(F)F)nn1-c1ncccc1Cl (stereo not drawn) [Compound 129, 5-bromo-6-(1-(3-chloropyridin-2-yl)-3-(trifluoromethyl)-1H-pyrazole-5-carboxamido)-N-(3-oxoisoxazolidin-4-yl)pyrazolo[1,5-a]pyridine-7-carboxamide] | > 70
COc1cc(C(=O)Nc2c(C)cc3ccnn3c2C(=O)N2CC(F)(F)C2)n(-c2ncccc2Cl)n1 [Compound 39, 1-(3-chloropyridin-2-yl)-N-(7-(3,3-difluoroazetidine-1-carbonyl)-5-methylpyrazolo[1,5-a]pyridin-6-yl)-3-methoxy-1H-pyrazole-5-carboxamide] | > 70
Cc1cc2ccnn2c(C(=O)N2CC(F)(F)C2)c1NC(=O)c1cc(Br)nn1-c1ncccc1Cl [Compound 23, 3-bromo-1-(3-chloropyridin-2-yl)-N-(7-(3,3-difluoroazetidine-1-carbonyl)-5-methylpyrazolo[1,5-a]pyridin-6-yl)-1H-pyrazole-5-carboxamide] | > 70
COCCNC(=O)c1c(NC(=O)c2cc(Br)nn2-c2ncccc2Cl)c(Br)cc2ccnn12 [Compound 88, 5-bromo-6-(3-bromo-1-(3-chloropyridin-2-yl)-1H-pyrazole-5-carboxamido)-N-(2-methoxyethyl)pyrazolo[1,5-a]pyridine-7-carboxamide] | > 70
CNC(=O)c1c(NC(=O)c2cc(Oc3cc(C(F)(F)F)nn3C)nn2-c2ncccc2Cl)c(C)cc2ccnn12 [Compound 69, 6-(1-(3-chloropyridin-2-yl)-3-((1-methyl-3-(trifluoromethyl)-1H-pyrazol-5-yl)oxy)-1H-pyrazole-5-carboxamido)-N,5-dimethylpyrazolo[1,5-a]pyridine-7-carboxamide] | > 70
COc1cc(C(=O)Nc2c(C)cc3ccnn3c2C(=O)NC(C)C(C)C)n(-c2ncccc2Cl)n1 (stereo not drawn) [Compound 212, 6-(1-(3-chloropyridin-2-yl)-3-methoxy-1H-pyrazole-5-carboxamido)-5-methyl-N-(3-methylbutan-2-yl)pyrazolo[1,5-a]pyridine-7-carboxamide] | > 70
Cc1cc2ccnn2c(C(=O)NC2CC2)c1NC(=O)c1cc(Oc2cc(C(F)(F)F)nn2C)nn1-c1ncccc1Cl [Compound 79, 6-(1-(3-chloropyridin-2-yl)-3-((1-methyl-3-(trifluoromethyl)-1H-pyrazol-5-yl)oxy)-1H-pyrazole-5-carboxamido)-N-cyclopropyl-5-methylpyrazolo[1,5-a]pyridine-7-carboxamide] | > 70
Cc1cc2ccnn2c(C(=O)N2CCC2)c1NC(=O)c1cc(Br)nn1-c1ncccc1Cl [Compound 34, N-(7-(azetidine-1-carbonyl)-5-methylpyrazolo[1,5-a]pyridin-6-yl)-3-bromo-1-(3-chloropyridin-2-yl)-1H-pyrazole-5-carboxamide] | > 70
COc1cc(C(=O)Nc2c(Br)cc3ccnn3c2C(=O)NC2(C)CC2)n(-c2ncccc2Cl)n1 [Compound 223, 5-bromo-6-(1-(3-chloropyridin-2-yl)-3-methoxy-1H-pyrazole-5-carboxamido)-N-(1-methylcyclopropyl)pyrazolo[1,5-a]pyridine-7-carboxamide] | > 70
CCCNC(=O)c1c(NC(=O)c2cc(OC3CSC3)nn2-c2ncccc2Cl)c(C)cc2ccnn12 [Compound 103, 6-(1-(3-chloropyridin-2-yl)-3-(thietan-3-yloxy)-1H-pyrazole-5-carboxamido)-5-methyl-N-propylpyrazolo[1,5-a]pyridine-7-carboxamide] | > 70
COc1cc(C(=O)Nc2c(Cl)cc3ccnn3c2C(=O)NCC#N)n(-c2ncccc2Cl)n1 [Compound 149, 5-chloro-6-(1-(3-chloropyridin-2-yl)-3-methoxy-1H-pyrazole-5-carboxamido)-N-(cyanomethyl)pyrazolo[1,5-a]pyridine-7-carboxamide] | > 70
CNC(=O)c1c(NC(=O)c2cc(C(F)(F)F)nn2-c2ncccc2Cl)c(Br)cc2ccnn12 [Compound 104, 5-bromo-6-(1-(3-chloropyridin-2-yl)-3-(trifluoromethyl)-1H-pyrazole-5-carboxamido)-N-methylpyrazolo[1,5-a]pyridine-7-carboxamide] | > 70
CCC(COC)NC(=O)c1c(NC(=O)c2cc(OC)nn2-c2ncccc2Cl)c(C)cc2ccnn12 (stereo not drawn) [Compound 205, 6-(1-(3-chloropyridin-2-yl)-3-methoxy-1H-pyrazole-5-carboxamido)-N-(1-methoxybutan-2-yl)-5-methylpyrazolo[1,5-a]pyridine-7-carboxamide] | > 70
Cc1cc2ccnn2c(C(=O)NOC(C)C)c1NC(=O)c1cc(Br)nn1-c1ncccc1Cl [Compound 105, 6-(3-bromo-1-(3-chloropyridin-2-yl)-1H-pyrazole-5-carboxamido)-N-isopropoxy-5-methylpyrazolo[1,5-a]pyridine-7-carboxamide] | > 70
